Structures can show the parent of a compound that is named as a salt. Where two headings read alike, the source gives them in different places.

As a reminder, the melting point is the temperature of the solid-liquid transition. One may read the Hill slope as the slope factor of the fitted curve. For orientation: IC50 means the concentration at which inhibition is half-maximal. The term Ki denotes a dissociation constant, usually derived from enzyme kinetics or from competition with a known ligand. As usually defined, the inhibition is the change of the read-out against control, counted positive when it falls.

For one series, the target named is AfChiA1 (Aspergillus fumigatus, UniProt Q873Y0). The experiment in a line: biochemical. The class given is biochemical. The following applies: for inhibition at 1000 µM: read-out: % inhibition at 1 mM.
Sequence of AfChiA1 (Q873Y0 29-335): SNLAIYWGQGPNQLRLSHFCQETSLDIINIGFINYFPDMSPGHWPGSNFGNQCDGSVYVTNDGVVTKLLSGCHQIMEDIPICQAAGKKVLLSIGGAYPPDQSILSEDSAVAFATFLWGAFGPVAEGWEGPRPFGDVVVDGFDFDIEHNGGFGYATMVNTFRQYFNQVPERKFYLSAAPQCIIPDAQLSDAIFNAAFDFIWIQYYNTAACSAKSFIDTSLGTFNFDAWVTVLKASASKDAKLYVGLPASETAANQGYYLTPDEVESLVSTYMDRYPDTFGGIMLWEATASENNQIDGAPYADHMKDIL
For a further series, the target named is hCHT (human chitinase) (Homo sapiens, UniProt Q13231). Briefly: hCHT (human chitinase) inhibition. Format: biochemical.
Sequence of hCHT (human chitinase) (Q13231 22-466): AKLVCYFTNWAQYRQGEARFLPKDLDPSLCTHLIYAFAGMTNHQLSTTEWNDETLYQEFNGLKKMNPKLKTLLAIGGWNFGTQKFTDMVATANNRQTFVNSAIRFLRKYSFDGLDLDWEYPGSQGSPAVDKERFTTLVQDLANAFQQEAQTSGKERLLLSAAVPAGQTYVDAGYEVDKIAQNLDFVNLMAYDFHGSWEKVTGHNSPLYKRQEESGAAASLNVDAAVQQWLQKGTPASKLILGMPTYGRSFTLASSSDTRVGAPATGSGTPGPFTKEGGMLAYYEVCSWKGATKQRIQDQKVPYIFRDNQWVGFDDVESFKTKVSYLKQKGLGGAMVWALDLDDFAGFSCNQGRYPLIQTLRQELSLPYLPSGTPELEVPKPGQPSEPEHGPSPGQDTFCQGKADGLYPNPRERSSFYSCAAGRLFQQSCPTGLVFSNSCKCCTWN
The target of the next series is hevamine. The arrangement: method as in PMID 10922481. Particulars: read-out: Ki against hevamine; cited from earlier work.
Setting [1] is: human chitinase, read-out: hCHT IC50.
[2] abbreviates: Table 3, 4-parameter logistic fit.

Compound `CC(=O)Nc1nncs1` (as salt: salt) [Compound 7, 5-acetamido-1,3,4-thiadiazole] returned a melting point of 276 to 277 °C.
Compound `Cn1c(=O)c2[nH]c(Cl)nc2n(C)c1=O` [8-Chloro-theophylline, 8-chlorotheophylline, reference compound] showed a Hill slope at AfChiA1 of 1.0. Moreover, on hCHT (human chitinase) (setting [1]), the IC50 was greater than 2500 µM.
On AfChiA1 (Fig. 1, triplicate, four-parameter logistic fit), `CC(=O)N[C@H]1[C@H](O[C@H]2[C@@H](O)[C@@H](NC(C)=O)[C@H](O[C@H]3[C@H](O)[C@H]4N=C(N(C)C)O[C@H]4[C@@H]3CO)O[C@@H]2CO)O[C@H](CO)[C@@H](O)[C@H]1O` [Allosamidin, reference compound] displayed a Hill slope of 0.9. Also, the inhibition constant (Ki) at hevamine was 3.1 µM.
Consider `CC(=O)Nc1nnc(S(N)(=O)=O)s1` [Compound 1, acetazolamide], for which the IC50 at hCHT (human chitinase) (setting [1]) was greater than 1000 µM.
On to `CCC(=O)Nc1nnc(S(N)(=O)=O)s1` [Compound 2, 5-propylamido-2-sulfamoyl-1,3,4-thiadiazole], for which, on AfChiA1, the Hill slope stood at 0.71, the “inhibitory activity against AfChiA1 (in words)” value (from here on “inhibitory activity”) is recorded as “reduction in activity” and the inhibition at 1000 µM was 76%.
`NS(=O)(=O)c1nnc(NC(=O)c2ccccc2)s1` [Compound 5, 5-benzylamido-2-sulfamoyl-1,3,4-thiadiazole] showed a Hill slope on AfChiA1 (setting [2]) of 0.5. Besides, the inhibition at 1000 µM on AfChiA1 is 51%.
For `Nc1nnc(S(N)(=O)=O)s1` [Compound 6, 5-amino-2-sulfamoyl-1,3,4-thiadiazole monohydrochloride], the “inhibitory activity” value at AfChiA1 is “abolishes inhibitory activity”.
For the compound `CC(=O)Nc1nncs1` [Compound 7, 5-acetamido-1,3,4-thiadiazole], at AfChiA1, the “inhibitory activity” value is “abrogate activity”.
With `CC(=O)Nc1nnc(C)s1` [Compound 8], the “inhibitory activity” value against AfChiA1 was “abrogate activity”.
Consider `CC(=O)Nc1nnc(S)s1` [Compound 9, 5-Acetamido-2-thiol-1,3,4-thiadiazole], for which the Hill slope on AfChiA1 (setting [2]) is on record as 1.1.
Compound `CC(=O)Nc1nnc(-c2ccccc2)s1` [Compound 10] displayed a Hill slope at AfChiA1 (setting [2]) of 0.5.
On the same count and under the same terms, for `CC(=O)Nc1nnc(C(F)(F)F)s1` [Compound 11] the value was 1.1; for `CC(=O)Nc1nnc(Br)s1` [Compound 12], 0.7.
As to `COc1cccc(CSc2nnc(NC(C)=O)s2)c1` [Compound 14], at AfChiA1, the inhibition at 1000 µM was 38%.
For `O=C(Nc1nnc(-c2ccccc2)s1)C(F)(F)F` [Compound 15], at AfChiA1, the Hill slope is reported as 1.2 and the inhibition at 1000 µM turned out to be 85%.
For the compound `O=C(Nc1nnc(N2CCN(c3cccc(Cl)c3)CC2)s1)C(F)(F)F` [Compound 17], the inhibition at 1000 µM at AfChiA1 was 30%.
Consider `CC(C)Cc1nnc(NC(=O)CCl)s1` [Compound 20], for which, at AfChiA1, the “inhibitory activity” value was “reduction in activity”.
As to `O=C(CCl)Nc1nnc(C(F)(F)F)s1` [Compound 21], the “inhibitory activity” value on AfChiA1 was “reduction in activity”.
For `c1coc(CNc2ncnc3[nH]cnc23)c1` [Kinetin, reference compound], the “inhibitory activity” value at AfChiA1 is “failed to show any discernable effect”. The compound further yielded an IC50 against hCHT (human chitinase) greater than 1000 µM.

The values are drawn from article PMC2997425, “Acetazolamide-based fungal chitinase inhibitors” (Bioorganic & Medicinal Chemistry, 2010).
